Measurements reported in US9334264B2, “NAMPT inhibitors” (AbbVie Inc., priority 2012, dated 2016).

Experiments:
[1] = biological target: NAMPT (human, recombinant, C-terminally His-tagged) (Homo sapiens, UniProt P43490); experiment: Time-Resolved Fluorescence Resonance Energy Transfer (TR-FRET) Binding Assay of NAMPT; settings: absence of substrates; 6.8 nM NAMPT, 200 nM probe, equilibrated 3 hours
Outline: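 Compounds (typically 11 half-log dilutions, 2% DMSO final) equilibrated 3 h at room temperature with 6.8 nM human C-His NAMPT, 1 nM Tb-anti-His antibody and 200 nM fluorescent competitive probe in pH 7.5 HEPES buffer. IC50 derived by logistic fit of normalized TR-FRET ratio (520/495 nm).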

NAMPT = NAMPT (Homo sapiens, UniProt P43490); experiment: Time-Resolved Fluorescence Resonance Energy Transfer (TR-FRET) Binding Assay of NAMPT with PRPP; settings: 200 μM PRPP and 2.5 mM ATP; 2 nM NAMPT, 2 nM probe, equilibrated 16 hours
Sequence of NAMPT (P43490 whole entry): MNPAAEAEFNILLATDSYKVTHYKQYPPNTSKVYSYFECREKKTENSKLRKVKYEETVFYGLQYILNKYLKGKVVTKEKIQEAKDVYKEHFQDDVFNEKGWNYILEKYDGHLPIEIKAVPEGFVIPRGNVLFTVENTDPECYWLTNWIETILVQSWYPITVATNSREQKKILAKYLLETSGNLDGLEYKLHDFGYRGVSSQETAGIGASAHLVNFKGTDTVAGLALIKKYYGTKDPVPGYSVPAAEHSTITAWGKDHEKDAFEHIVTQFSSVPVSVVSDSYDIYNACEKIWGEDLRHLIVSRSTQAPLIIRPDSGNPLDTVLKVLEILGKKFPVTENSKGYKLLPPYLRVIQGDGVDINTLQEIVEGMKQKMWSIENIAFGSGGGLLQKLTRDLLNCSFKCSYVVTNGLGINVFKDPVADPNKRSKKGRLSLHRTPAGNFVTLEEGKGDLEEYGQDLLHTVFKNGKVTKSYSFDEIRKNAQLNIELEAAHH
Outline: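 Compounds were equilibrated for 16 hours before TR-FRET readout, with substrates present (200 μM PRPP, 2.5 mM ATP) to permit enzymatic modification. Final mix: 2 nM His-tagged NAMPT, 2 nM probe, 1 nM Tb-anti-His antibody, 2% DMSO.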

Sequence of NAMPT (human, recombinant, C-terminally His-tagged) (P43490 whole entry): as above

IC50 [1] [nM] | IC50 (NAMPT) [nM] | SMILES
> 10000 | 1390 | CC(C)C(CC(=O)O)NC(=O)N(Cc1ccc(C#N)cc1)c1ncc(C(=O)NCCCn2ccnc2)s1 (stereo not shown) [Example 168, 3-{[(4-cyanobenzyl)(5-{[3-(1H-imidazol-1-yl)propyl]carbamoyl}-1,3-thiazol-2-yl)carbamoyl]amino}-4-methylpentanoic acid]
8450 | 266 | CC(C)(CNC(=O)N(Cc1ccc(C#N)cc1)c1ncc(C(=O)NCCCn2ccnc2)s1)C(=O)O [Example 169, 3-{[(4-cyanobenzyl)(5-{[3-(1H-imidazol-1-yl)propyl]carbamoyl}-1,3-thiazol-2-yl)carbamoyl]amino}-2,2-dimethylpropanoic acid]
8790 | 32.1 | N#Cc1ccc(CN(C(=O)NCCC(=O)O)c2ncc(C(=O)NCCCn3ccnc3)s2)cc1 [Example 171, N-[(4-cyanobenzyl)(5-{[3-(1H-imidazol-1-yl)propyl]carbamoyl}-1,3-thiazol-2-yl)carbamoyl]-beta-alanine]
> 10000 | 153 | N#Cc1ccc(CN(C(=O)NCCCC(=O)O)c2ncc(C(=O)NCCCn3ccnc3)s2)cc1 [Example 172, 4-{[(4-cyanobenzyl)(5-{[3-(1H-imidazol-1-yl)propyl]carbamoyl}-1,3-thiazol-2-yl)carbamoyl]amino}butanoic acid]
707 | 2.33 | CC(C)CCN(C(=O)CC1CCCO1)c1ncc(C(=O)NCCCn2ccnc2)s1 (stereo not shown) [Example 173, N-[3-(1H-imidazol-1-yl)propyl]-2-[(3-methylbutyl)(tetrahydrofuran-2-ylacetyl)amino]-1,3-thiazole-5-carboxamide]
334 | 0.714 | CC(C)CCN(C(=O)CC1CCOC1)c1ncc(C(=O)NCCCn2ccnc2)s1 (stereo not shown) [Example 174, N-[3-(1H-imidazol-1-yl)propyl]-2-[(3-methylbutyl)(tetrahydrofuran-3-ylacetyl)amino]-1,3-thiazole-5-carboxamide]
1150 | 0.6 | COCCC(=O)N(CCOC)c1ncc(C(=O)NCCCn2ccnc2)s1 [Example 175, N-[3-(1H-imidazol-1-yl)propyl]-2-[(2-methoxyethyl)(3-methoxypropanoyl)amino]-1,3-thiazole-5-carboxamide]
7360 | 0.365 | COCCCN(C(=O)CCOC)c1ncc(C(=O)NCCCn2ccnc2)s1 [Example 176, N-[3-(1H-imidazol-1-yl)propyl]-2-[(3-methoxypropanoyl)(3-methoxypropyl)amino]-1,3-thiazole-5-carboxamide]
4620 | 0.653 | COCCC(=O)N(CC1CCCCO1)c1ncc(C(=O)NCCCn2ccnc2)s1 (stereo not shown) [Example 177, N-[3-(1H-imidazol-1-yl)propyl]-2-[(3-methoxypropanoyl)(tetrahydro-2H-pyran-2-ylmethyl)amino]-1,3-thiazole-5-carboxamide]
6970 | 0.813 | COCCC(=O)N(CC1CCCO1)c1ncc(C(=O)NCCCn2ccnc2)s1 (stereo not shown) [Example 178, N-[3-(1H-imidazol-1-yl)propyl]-2-[(3-methoxypropanoyl)(tetrahydrofuran-2-ylmethyl)amino]-1,3-thiazole-5-carboxamide]
9800 | 0.492 | COCCC(=O)N(CCOC(C)C)c1ncc(C(=O)NCCCn2ccnc2)s1 [Example 179, N-[3-(1H-imidazol-1-yl)propyl]-2-{(3-methoxypropanoyl)[2-(propan-2-yloxy)ethyl]amino}-1,3-thiazole-5-carboxamide]
7710 | 0.333 | COCCC(=O)N(CCC1OCCO1)c1ncc(C(=O)NCCCn2ccnc2)s1 [Example 180, 2-{[2-(1,3-dioxolan-2-yl)ethyl](3-methoxypropanoyl)amino}-N-[3-(1H-imidazol-1-yl)propyl]-1,3-thiazole-5-carboxamide]
> 10000 | 0.556 | COCCC(=O)N(CC1COCCO1)c1ncc(C(=O)NCCCn2ccnc2)s1 (stereo not shown) [Example 181, 2-[(1,4-dioxan-2-ylmethyl)(3-methoxypropanoyl)amino]-N-[3-(1H-imidazol-1-yl)propyl]-1,3-thiazole-5-carboxamide]
2590 | 0.264 | COCCN(C(=O)CCc1ccc(F)cc1)c1ncc(C(=O)NCCCn2ccnc2)s1 [Example 182, 2-{[3-(4-fluorophenyl)propanoyl](2-methoxyethyl)amino}-N-[3-(1H-imidazol-1-yl)propyl]-1,3-thiazole-5-carboxamide]
2940 | 0.281 | COCCN(C(=O)CCc1cccnc1)c1ncc(C(=O)NCCCn2ccnc2)s1 [Example 183, N-[3-(1H-imidazol-1-yl)propyl]-2-{(2-methoxyethyl)[3-(pyridin-3-yl)propanoyl]amino}-1,3-thiazole-5-carboxamide]
763 | 0.285 | COCCN(C(=O)Cc1cccnc1)c1ncc(C(=O)NCCCn2ccnc2)s1 [Example 184, N-[3-(1H-imidazol-1-yl)propyl]-2-[(2-methoxyethyl)(pyridin-3-ylacetyl)amino]-1,3-thiazole-5-carboxamide]
633 | 0.476 | COCCN(C(=O)Cc1ccc2ccccc2c1)c1ncc(C(=O)NCCCn2ccnc2)s1 [Example 185, N-[3-(1H-imidazol-1-yl)propyl]-2-[(2-methoxyethyl)(naphthalen-2-ylacetyl)amino]-1,3-thiazole-5-carboxamide]
1100 | 1.23 | COCCN(C(=O)Cc1ccc(Oc2ccccc2)cc1)c1ncc(C(=O)NCCCn2ccnc2)s1 [Example 186, N-[3-(1H-imidazol-1-yl)propyl]-2-{(2-methoxyethyl)[(4-phenoxyphenyl)acetyl]amino}-1,3-thiazole-5-carboxamide]
3210 | 0.216 | COCCN(C(=O)Cc1ccc(C#N)cc1)c1ncc(C(=O)NCCCn2ccnc2)s1 [Example 187, 2-{[(4-cyanophenyl)acetyl](2-methoxyethyl)amino}-N-[3-(1H-imidazol-1-yl)propyl]-1,3-thiazole-5-carboxamide]
356 | 0.195 | COCCN(C(=O)Cc1ccc(N)cc1)c1ncc(C(=O)NCCCn2ccnc2)s1 [Example 188, 2-{[(4-aminophenyl)acetyl](2-methoxyethyl)amino}-N-[3-(1H-imidazol-1-yl)propyl]-1,3-thiazole-5-carboxamide]
4700 | 0.586 | C=CCN(CC=C)CCN(C(=O)CCOC)c1ncc(C(=O)NCCCn2ccnc2)s1 [Example 189, 2-[{2-[di(prop-2-en-1-yl)amino]ethyl}(3-methoxypropanoyl)amino]-N-[3-(1H-imidazol-1-yl)propyl]-1,3-thiazole-5-carboxamide]
2610 | 0.606 | CCN(CC)CCCN(C(=O)CCOC)c1ncc(C(=O)NCCCn2ccnc2)s1 [Example 190, 2-{[3-(diethylamino)propyl](3-methoxypropanoyl)amino}-N-[3-(1H-imidazol-1-yl)propyl]-1,3-thiazole-5-carboxamide]
> 10000 | 0.265 | CCN(CC)CCN(C(=O)CCOC)c1ncc(C(=O)NCCCn2ccnc2)s1 [Example 191, 2-{[2-(diethylamino)ethyl](3-methoxypropanoyl)amino}-N-[3-(1H-imidazol-1-yl)propyl]-1,3-thiazole-5-carboxamide]
